The text below walks through data of PubChem BioAssay (NCI).

Among the test systems are SK-MEL-28 melanoma; SF-268 CNS; OVCAR-4 ovarian; OVCAR-3 ovarian; UO-31 renal; UACC-257 melanoma; RXF 393 renal; HL-60(TB) leukemia; RPMI-8226 leukemia; MALME-3M melanoma.
Holding throughout (test): NCI tumour cell line growth inhibition, 48 h

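Compound exposure: 48 hours, 5 concentrations, 96-well plates. TGI denotes the concentration required for complete inhibition of growth.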

Consider `CCOC(=O)c1ccc2nc3n(c2c1)C(c1c(F)cccc1F)SC3` (stereo not drawn), for which the TGI in the assay with SK-MEL-28 melanoma, in the assay on SF-268 CNS, in the assay on OVCAR-4 ovarian, in the assay on OVCAR-3 ovarian, in the assay on UO-31 renal and in the assay on UACC-257 melanoma was greater than 100 µM throughout. Also, the TGI in the assay with RXF 393 renal, with HL-60(TB) leukemia and in the assay on RPMI-8226 leukemia was greater than 100 µM each time.
Regarding `O=C1CCCC1CC(CN1CCOCC1)Sc1nnnn1-c1ccccc1` (stereo not drawn), the TGI in the assay on SK-MEL-28 melanoma, in the assay on OVCAR-4 ovarian, in the assay with OVCAR-3 ovarian, with MALME-3M melanoma, in the assay on UO-31 renal and with UACC-257 melanoma was greater than 100 µM in each case. The TGI was greater than 100 µM in the assay on RXF 393 renal, 82.2 µM with HL-60(TB) leukemia and greater than 100 µM with RPMI-8226 leukemia.
In the case of `C=C1c2c(n(S(=O)(=O)c3ccccc3)c3ccccc23)[C@@]2(C(=O)OC)CC3C=CC2N1C3`, the TGI in the assay with SK-MEL-28 melanoma, in the assay with SF-268 CNS, in the assay on OVCAR-4 ovarian, with OVCAR-3 ovarian, in the assay with MALME-3M melanoma and with UACC-257 melanoma was greater than 100 µM each time. The TGI with RXF 393 renal, in the assay with HL-60(TB) leukemia and in the assay with RPMI-8226 leukemia was greater than 100 µM throughout.
On to `CCOC(=O)c1nc2ccccc2nc1Nc1ccc(C(=O)OC)s1`, for which the TGI in the assay on SK-MEL-28 melanoma, with SF-268 CNS, with OVCAR-4 ovarian, with OVCAR-3 ovarian, in the assay with MALME-3M melanoma and with UO-31 renal was greater than 100 µM throughout. Besides, the TGI in the assay on UACC-257 melanoma, in the assay on HL-60(TB) leukemia and in the assay with RPMI-8226 leukemia was greater than 100 µM each time.
For `COC(=O)/C=C1\C(CO[Si](C)(C)C(C)(C)C)OC(n2cc(C)c(=O)n(C)c2=O)C1O[Si](C)(C)C(C)(C)C` (stereo not drawn), the TGI in the assay with SK-MEL-28 melanoma, in the assay with SF-268 CNS, in the assay with OVCAR-3 ovarian, with MALME-3M melanoma, in the assay on UO-31 renal and in the assay on RPMI-8226 leukemia was greater than 100 µM throughout.
For the compound `O=S(=O)(O)c1ccc(O)c(N=Nc2c(O)ccc3ccccc23)c1`, the TGI with SK-MEL-28 melanoma, in the assay with SF-268 CNS, with OVCAR-4 ovarian, in the assay on OVCAR-3 ovarian, in the assay on UO-31 renal and with UACC-257 melanoma was greater than 100 µM throughout. The TGI in the assay on RXF 393 renal and with RPMI-8226 leukemia was greater than 100 µM in each case.
For `N=C(N)SCc1nc(-c2ccc(Cl)cc2)no1`, the TGI in the assay with SK-MEL-28 melanoma is 33 µM; in the assay on SF-268 CNS it was greater than 100 µM; in the assay with OVCAR-4 ovarian, 29.1 µM; in the assay with OVCAR-3 ovarian, 26.2 µM; with MALME-3M melanoma, 34.6 µM; in the assay on UACC-257 melanoma, greater than 100 µM. Besides, the results for the TGI in the assay on RXF 393 renal, with HL-60(TB) leukemia and in the assay on RPMI-8226 leukemia were 25 µM, 37.1 µM and 26.8 µM, respectively.
With `N#CCCN(CCCCN(CCC#N)C(=O)Nc1ccccc1)C(=O)Nc1ccccc1`, the TGI in the assay with SK-MEL-28 melanoma, in the assay on SF-268 CNS, in the assay with OVCAR-4 ovarian, in the assay on OVCAR-3 ovarian, in the assay with MALME-3M melanoma and with UO-31 renal was greater than 100 µM each time. Besides, the TGI in the assay with RXF 393 renal, in the assay on HL-60(TB) leukemia and with RPMI-8226 leukemia was greater than 100 µM throughout.
`COc1cc2nc(-c3cccs3)nc(Nc3ccccc3C(=O)NN)c2cc1OC`: the TGI in the assay with SK-MEL-28 melanoma, in the assay on SF-268 CNS, in the assay with OVCAR-4 ovarian, in the assay with OVCAR-3 ovarian, in the assay with MALME-3M melanoma and in the assay with UO-31 renal was greater than 100 µM each time. Besides, the TGI in the assay on UACC-257 melanoma, with HL-60(TB) leukemia and in the assay on RPMI-8226 leukemia was greater than 100 µM in each case.
As for `CCCCCCc1ccc(CCCCCCCC(=O)O)o1`, the TGI with SK-MEL-28 melanoma, in the assay with OVCAR-4 ovarian, with OVCAR-3 ovarian, in the assay with UO-31 renal, in the assay on UACC-257 melanoma and in the assay on RPMI-8226 leukemia was greater than 100 µM in each case.
`CCOC(=O)c1sc2nc(SC)nc3c2c1NCN3C`: the TGI with SK-MEL-28 melanoma is greater than 100 µM; with SF-268 CNS, 61.5 µM; in the assay on OVCAR-4 ovarian, greater than 100 µM; with OVCAR-3 ovarian it was greater than 100 µM; in the assay on MALME-3M melanoma, 57.6 µM; in the assay with UO-31 renal, 37.6 µM. Besides, the TGI with UACC-257 melanoma is greater than 100 µM; with RXF 393 renal, 32.8 µM; with RPMI-8226 leukemia, greater than 100 µM.
For `Oc1ccc(-c2nc3cc(C(F)(F)F)ccc3s2)cc1`, the TGI in the assay on SF-268 CNS came to 30.8 µM; in the assay on OVCAR-3 ovarian, 28.3 µM; in the assay on MALME-3M melanoma, 26.6 µM; in the assay on UO-31 renal, 26.8 µM; with UACC-257 melanoma, 32.2 µM; in the assay with RXF 393 renal, 33.2 µM. Besides, the TGI came to 40.7 µM in the assay on HL-60(TB) leukemia and 35.4 µM with RPMI-8226 leukemia.
As to `COc1cc(C(c2ccccc2)N2C(=O)CC[C@H]2C(=O)O)cc(OC)c1OC` (stereo partly drawn), the TGI in the assay on SK-MEL-28 melanoma, in the assay on SF-268 CNS, with OVCAR-4 ovarian, in the assay with OVCAR-3 ovarian, with MALME-3M melanoma and in the assay with UO-31 renal was greater than 100 µM each time. Moreover, the TGI with UACC-257 melanoma, in the assay on HL-60(TB) leukemia and in the assay with RPMI-8226 leukemia was greater than 100 µM each time.
Regarding `COc1cc2nc(-c3cccs3)nc(N3CCN(c4ccccc4)CC3)c2cc1OC`, the TGI with SK-MEL-28 melanoma, with SF-268 CNS, in the assay with OVCAR-4 ovarian, in the assay with OVCAR-3 ovarian, with MALME-3M melanoma and with UO-31 renal was greater than 100 µM each time. For the same compound, the TGI in the assay on UACC-257 melanoma, in the assay on HL-60(TB) leukemia and with RPMI-8226 leukemia was greater than 100 µM each time.
On to `O=C1C(c2ccccc2)=C(c2ccccc2)C1(Cl)Cl`, for which the TGI was 10.9 µM in the assay on SK-MEL-28 melanoma; 12.7 µM in the assay on SF-268 CNS; 11.4 µM with OVCAR-4 ovarian; 7.34 µM with OVCAR-3 ovarian; 7.56 µM in the assay on MALME-3M melanoma; 13.5 µM with UO-31 renal. Besides, the TGI was determined as 9.36 µM in the assay with UACC-257 melanoma, 2.17 µM in the assay on HL-60(TB) leukemia and 5.53 µM with RPMI-8226 leukemia.
Consider `O=C(CC(=O)N1N=C(c2ccccc2)C(N=Nc2ccc(S(=O)(=O)CCOS(=O)(=O)O)cc2)C1=O)Nc1ccc(Cl)cc1` (stereo not drawn), for which the TGI with SK-MEL-28 melanoma, in the assay on SF-268 CNS, with OVCAR-3 ovarian, in the assay on MALME-3M melanoma, with UO-31 renal and in the assay on UACC-257 melanoma was greater than 100 µM each time. Moreover, the TGI in the assay with RXF 393 renal, in the assay on HL-60(TB) leukemia and with RPMI-8226 leukemia was greater than 100 µM in each case.
For `CN(C)C(=O)N1N[C@H](c2ccccc2)[C@@H]1c1ccccc1`, the TGI in the assay with SK-MEL-28 melanoma, in the assay on OVCAR-4 ovarian, in the assay on OVCAR-3 ovarian, in the assay on MALME-3M melanoma, in the assay on UO-31 renal and in the assay with UACC-257 melanoma was greater than 100 µM each time. Besides, the TGI with RXF 393 renal and in the assay on RPMI-8226 leukemia was greater than 100 µM in each case.
For the compound `COc1cc(C2c3cccc4cccc(c34)C3CCC(=O)N32)cc(OC)c1O` (stereo not drawn), the TGI in the assay on SK-MEL-28 melanoma, in the assay with OVCAR-4 ovarian, in the assay with OVCAR-3 ovarian, in the assay on UO-31 renal, with UACC-257 melanoma and in the assay on RXF 393 renal was greater than 50 µM throughout. For the same compound, the TGI in the assay with HL-60(TB) leukemia and with RPMI-8226 leukemia was greater than 50 µM throughout.
`O=C1Sc2ccccc2C(=O)N2CCSC12` (stereo not drawn): the TGI in the assay on SK-MEL-28 melanoma, with OVCAR-3 ovarian, in the assay on MALME-3M melanoma, in the assay with UO-31 renal, with UACC-257 melanoma and with RXF 393 renal was greater than 100 µM throughout. Also, the TGI with HL-60(TB) leukemia and in the assay on RPMI-8226 leukemia was greater than 100 µM in each case.
For `Cc1cc(N(CCC#N)CCC#N)ccc1/C(N=Nc1ccc(C(=O)O)cc1)=N\NC(=O)c1ccccc1`, the TGI in the assay on SF-268 CNS, with OVCAR-4 ovarian, with MALME-3M melanoma, in the assay on UO-31 renal, with UACC-257 melanoma and with RXF 393 renal was greater than 100 µM in each case. The compound also yielded a TGI with RPMI-8226 leukemia greater than 100 µM.
With `CC(C)(C)OC(=O)N1C(=O)C2CCCC21` (stereo not drawn), the TGI in the assay on SK-MEL-28 melanoma, in the assay on SF-268 CNS, with OVCAR-4 ovarian, with OVCAR-3 ovarian, in the assay with UACC-257 melanoma and in the assay on RXF 393 renal was greater than 100 µM each time. Moreover, the TGI in the assay on HL-60(TB) leukemia and with RPMI-8226 leukemia was greater than 100 µM throughout.
`[N-]=[N+]=Nc1cc(=O)[nH]c2ccccc12`: the TGI in the assay with SK-MEL-28 melanoma, in the assay with SF-268 CNS, in the assay with OVCAR-4 ovarian, in the assay with OVCAR-3 ovarian, in the assay on MALME-3M melanoma and in the assay with UO-31 renal was greater than 100 µM each time. Moreover, the TGI in the assay on UACC-257 melanoma, in the assay on RXF 393 renal and in the assay with RPMI-8226 leukemia was greater than 100 µM throughout.
With `CC1(C)C2CC3C(C)(C2)C31c1cc(Cl)ccc1N` (stereo not drawn), the TGI with SK-MEL-28 melanoma came to 31.3 µM; in the assay with SF-268 CNS, 28.3 µM; in the assay with OVCAR-4 ovarian, 28.6 µM; with OVCAR-3 ovarian, 31.2 µM; with MALME-3M melanoma, 21.3 µM; in the assay with UO-31 renal it was 26.8 µM. For the same compound, the results for the TGI in the assay with UACC-257 melanoma, in the assay with RXF 393 renal and with RPMI-8226 leukemia were 26.4 µM, 22.9 µM and 30 µM, respectively.
